The values below come from paper PMC4550478, “Metronidazole-triazole conjugates: Activity against Clostridium difficile and parasites” (European Journal of Medicinal Chemistry, 2015).

In experiment [1] the test system is G. lamblia BRIS/87/HEPU/713 (713). The arrangement: method as in earlier work. The conditions noted are these: MtzS, crude Mtz-triazoles (>85% purity), ref 15 (Miyamoto et al.); read-out: EC50 G. lamblia 713, Lit.; cited from earlier work.
Experiment [2] concerns C. difficile NAP1/027 ATCC BAA-1803. Briefly: MIC broth microdilution, C. difficile NAP1/027 ATCC BAA-1803. Type of experiment: cell-based, Clostridium difficile. The conditions noted are these: Clostridioides difficile. As to the method:
(§1) All compounds were tested for activity against a set of anaerobic C. difficile bacteria (630 ATCC BAA-1382, NAP1/027 M7404, NAP1/027 ATCC BAA-1803, VPI10463 ATCC 43255, CD26A54_S and CD26A54_R) and representative ESKAPE pathogens S. aureus (MRSA ATCC 43300), E. coli (ATCC 25922), K. pneumoniae (ATCC 700603), A. baumannii (ATCC 19606) and P. aeruginosa (ATCC 27853) using a standard broth microdilution assay. Selected compounds were tested for activity against H. pylori strains (26695, and clinical isolates MtzS 13/25, MtzR 98/285 and MtzR 13/61) using agar plate dilution, and for antimicrobial activity against […] Gram-positive bacterial strains: Enterococcus faecalis (VanA clinical isolate), Enterococcus faecium (MDR VanA ATCC 51559), Streptococcus pneumoniae (MDR ATCC 700677), S. aureus (MRSA ATCC 43300, MRSA clinical isolate, MRSA/DRSA clinical isolate, GISA NARSA NRS 1, GISA NARSA NRS 17, VRSA NARSA VRS1, VRSA NARSA VRS4 and VRSA NARSA VRS10) using broth microdilution. C. difficile strains were grown at 37 °C in a COY anaerobic chamber (5% H2, 10% CO2, 85% N2). H. pylori strains were grown at 37 °C under a microaerobic atmosphere (5% O2, 10% CO2). All facultative anaerobic bacteria were grown at 37 °C with normal atmospheric oxygen levels. All experiments were performed in duplicate with metronidazole, vancomycin, linezolid or colistin as positive controls for relevant strains (see Table 1). Positive growth control of bacteria and DMSO as well as a negative control of only media were included for every plate. Full assay details are provided in the supplementary information.
(§2) C. difficile ATCC BAA-1382, ATCC BAA-1803, ATCC 43255 and M7404 heat shocked spore stocks (10 µL) were transferred into the anaerobic chamber and 10 µL streaked onto pre-reduced (at least 2.5 hr in anaerobic chamber) BHIS agar plates supplemented with 0.1% w/v sodium taurocholate (BHIS(TA)). Plates were incubated for 24 hours prior to assay to give colonies of size 1-3mm diameter with characteristic uneven borders.
The minimum inhibition concentration was determined according to the CLSI Methods with modifications in broth and inoculum for C. difficile according to Babakhani et al.^7,8 Briefly, compounds were prepared to 20X final concentration in 100% water, 60% DMSO and 40% water or 60% DMSO and 40% media. The compounds along with standard antibiotics were serially diluted two-fold across the wells of 96-well non-binding surface plates (Non binding surface, Corning). The plates were placed in the anaerobic chamber overnight to reduce. C. difficile bacteria from BHIS(TA) agar plates were cultured anaerobically in BHIS at 37 °C overnight. A sample of culture was then diluted 40-fold in BHIS broth and incubated at 37 °C for approximately 4.5 hrs. The resultant mid-log phase culture (OD600= 0.5-0.6) was diluted to the final concentration of ~1×10^6 CFU/mL, then 50 µL was added to each well of the compound-containing 96-well plates. This gave final cell concentration of 5×10^5 CFU/mL, final volume 100 µL and 3% maximum DMSO concentration. Compound concentration was typically from 64 to 0.03 µg/mL. An antibiotic standard was included on each 96 well plate as well as a positive growth control (no compound) and sterility control (no bacteria). […] MICs were the lowest concentration showing no visible growth.
For orientation: In broth dilution the organism is exposed to a series of concentrations in liquid medium.

The subject of experiment [3] is C. difficile 630 ATCC BAA-1382. Briefly: MIC broth microdilution, C. difficile 630. The conditions noted are these: Clostridioides difficile, ATCCBAA1382, MtzS, 24 h, median of at least n = 4. Type of experiment: cell-based, Clostridium difficile. How it is done: as §1, §2
(§3) The minimum inhibition concentration was determined according to the CLSI Methods with modifications in broth and inoculum for C. difficile according to Babakhani et al.^7,8 Briefly, compounds were prepared to 20X final concentration in 100% water, 60% DMSO and 40% water or 60% DMSO and 40% media. The compounds along with standard antibiotics were serially diluted two-fold across the wells of 96-well non-binding surface plates (Non binding surface, Corning). The plates were placed in the anaerobic chamber overnight to reduce. C. difficile bacteria from BHIS(TA) agar plates were cultured anaerobically in BHIS at 37 °C overnight. A sample of culture was then diluted 40-fold in BHIS broth and incubated at 37 °C for approximately 4.5 hrs. The resultant mid-log phase culture (OD600= 0.5-0.6) was diluted to the final concentration of ~1×10^6 CFU/mL, then 50 µL was added to each well of the compound-containing 96-well plates. This gave final cell concentration of 5×10^5 CFU/mL, final volume 100 µL and 3% maximum DMSO concentration. Compound concentration was typically from 64 to 0.03 µg/mL. An antibiotic standard was included on each 96 well plate as well as a positive growth control (no compound) and sterility control (no bacteria). All the plates were covered and incubated at 37 °C for 24 h. MICs were the lowest concentration showing no visible growth.

For experiment [4], the system named is C. difficile VPI10463 ATCC 43255. Briefly: MIC broth microdilution, C. difficile VPI 10463. Type of experiment: cell-based, Clostridium difficile. The conditions noted are these: Clostridioides difficile, ATCC 43255 / ATCC BAA-1803; VPI 10463, MtzS, 24 h, median of at least n = 4. How it is done:
as §1, §2, §3

Experiment [5] relates to G. lamblia 713-M3 (713M). The arrangement: method as in earlier work. Conditions: MtzR, crude Mtz-triazoles (>85% purity), ref 15 (Miyamoto et al.); read-out: EC50 G. lamblia 713M, Lit.; cited from earlier work.
The mark [6] stands for this setting: ATCC 43255 / ATCC BAA-1803, NAP1/027 (footnote c: ATCC 43255), MtzS, 24 h, median of at least n = 4, read-out: MIC C. difficile NAP1/027 (footnote c).
Where [7] appears, read: ATCCBAA1803, 24 hr incubation, read-out: MIC C. difficile NAP1/027 ATCC BAA-1803 24 hr.
Setting [8] is: ATCCBAA1803, 48 hr incubation, read-out: MIC C. difficile NAP1/027 ATCC BAA-1803 48 hr.

pEC50: −log10 of the molar value. Values after ≈ are worked out from the molar mass of the structure shown. Where two headings read alike, the source gives them in different places.

`Cc1ncc([N+](=O)[O-])n1CCO` [Compound 1, metronidazole]: the negative-log EC50 (pEC50) – broadly, the EC50 on a negative log10 scale, so that one unit is a factor of ten – in experiment [1] was 5.70; in experiment [5], 4.30. For the same molecule, the MIC in experiment [2] (setting [6]), in experiment [2] (setting [7]), in experiment [2] (setting [8]), in experiment [3] and in experiment [4] was 0.5 µg/mL (≈ 2.92 µM) in each case.

For the molecule `Cc1ncc([N+](=O)[O-])n1CCn1cc(-c2ccc(Cl)c(Cl)c2)nn1` [Compound 4d, 1-(2-(2-methyl-5-nitro-1H-imidazol-1-yl)ethyl)-4-(3,4-dichlorophenyl)-1H-1,2,3-triazole], the negative logarithm of the EC50 (pEC50) is 6.51 in experiment [1] and 6.24 in experiment [5]. Also, the MIC is 1 µg/mL (≈ 2.72 µM) in experiment [2] (setting [6]); 1 µg/mL (≈ 2.72 µM) in experiment [2] (setting [7]); 0.5 to 8 µg/mL (≈ 1.36 to 21.8 µM) in experiment [2] (setting [8]); 0.5 µg/mL (≈ 1.36 µM) in experiment [3]; 0.5 to 1 µg/mL (≈ 1.36 to 2.72 µM) in experiment [4].

In the case of `Cc1ncc([N+](=O)[O-])n1CCn1cc(-c2ccsc2)nn1` [Compound 4n, 1-(2-(2-methyl-5-nitro-1H-imidazol-1-yl)ethyl)-4-(thiophen-3-yl)-1H-1,2,3-triazole], the negative-log EC50 (pEC50) was 6.64 in experiment [1] and 5.16 in experiment [5]. Also, the MIC was 0.5 µg/mL (≈ 1.64 µM) in experiment [2] (setting [6]); 0.5 µg/mL (≈ 1.64 µM) in experiment [2] (setting [7]); 0.5 µg/mL (≈ 1.64 µM) in experiment [2] (setting [8]); 0.5 µg/mL (≈ 1.64 µM) in experiment [3]; 0.25 to 0.5 µg/mL (≈ 0.821 to 1.64 µM) in experiment [4].

As for `Cc1ccc(-c2cn(CCn3c([N+](=O)[O-])cnc3C)nn2)cc1` [Compound 4e, 1-(2-(2-methyl-5-nitro-1H-imidazol-1-yl)ethyl)-4-(p-tolyl)-1H-1,2,3-triazole], the figures for the negative logarithm of the EC50 (pEC50) in experiment [1] and in experiment [5] were 6.28 and 5.09, respectively. Also, the MIC in experiment [2] (setting [6]) turned out to be 0.5 µg/mL (≈ 1.6 µM); in experiment [2] (setting [7]), 0.5 µg/mL (≈ 1.6 µM); in experiment [2] (setting [8]), 0.5 µg/mL (≈ 1.6 µM); in experiment [3] it was 0.5 µg/mL (≈ 1.6 µM); in experiment [4], 0.25 µg/mL (≈ 0.8 µM).

`Cc1ncc([N+](=O)[O-])n1CCn1cc(-c2ccccc2)nn1` [Compound 4a, 1-(2-(2-methyl-5-nitro-1H-imidazol-1-yl)ethyl)-4-phenyl-1H-1,2,3-triazole]: the pEC50 in experiment [1] is 6.80; in experiment [5], 5.28. Also, the MIC in experiment [2] (setting [6]) is 0.5 µg/mL (≈ 1.68 µM); in experiment [2] (setting [7]), 0.5 µg/mL (≈ 1.68 µM); in experiment [2] (setting [8]), 0.5 µg/mL (≈ 1.68 µM); in experiment [3], 0.5 µg/mL (≈ 1.68 µM); in experiment [4], 0.25 to 0.5 µg/mL (≈ 0.838 to 1.68 µM).

Turning to `Cc1ncc([N+](=O)[O-])n1CCn1cc(CN(C)Cc2ccccc2)nn1` [Compound 4m, 1-(2-(2-methyl-5-nitro-1H-imidazol-1-yl)ethyl)-4-(N-benzyl, N-methylaminomethyl)-1H-1,2,3-triazole], the pEC50 in experiment [1] is 6.04; in experiment [5], 5.03. Besides, the MIC in experiment [2] (setting [6]) is 1 µg/mL (≈ 2.81 µM); in experiment [2] (setting [7]), 2 µg/mL (≈ 5.63 µM); in experiment [2] (setting [8]), 1 to 2 µg/mL (≈ 2.81 to 5.63 µM); in experiment [3] it was 2 µg/mL (≈ 5.63 µM); in experiment [4], 1 to 2 µg/mL (≈ 2.81 to 5.63 µM).

Regarding `Cc1ncc([N+](=O)[O-])n1CCn1cc(-c2ccccn2)nn1` [Compound 4h, 1-(2-(2-methyl-5-nitro-1H-imidazol-1-yl)ethyl)-4-(2-pyridinyl)-1H-1,2,3-triazole.xTFA], the negative-log EC50 (pEC50) was 6.46 in experiment [1] and 4.85 in experiment [5]. Besides, the MIC in experiment [2] (setting [6]) is 0.5 µg/mL; in experiment [2] (setting [7]), 0.5 µg/mL; in experiment [2] (setting [8]), 0.5 to 1 µg/mL; in experiment [3], 0.5 µg/mL; in experiment [4], 0.5 µg/mL.

For `Cc1ncc([N+](=O)[O-])n1CCn1cc(Cc2ccccc2)nn1` [Compound 4k, 1-(2-(2-methyl-5-nitro-1H-imidazol-1-yl)ethyl)-4-benzyl-1H-1,2,3-triazole], the pEC50 in experiment [1] was 6.41; in experiment [5], 5.28. The MIC is 0.5 µg/mL (≈ 1.6 µM) in experiment [2] (setting [6]); 0.5 µg/mL (≈ 1.6 µM) in experiment [2] (setting [7]); 0.5 µg/mL (≈ 1.6 µM) in experiment [2] (setting [8]); 0.5 µg/mL (≈ 1.6 µM) in experiment [3]; 0.25 to 0.5 µg/mL (≈ 0.8 to 1.6 µM) in experiment [4].
